These results are taken from paper PMC8657075 (Journal of biotechnology, 2021).

In test [1] the target is T1, dopamine transporter (DAT) (Rattus norvegicus, UniProt P23977). Briefly: [3H]GBR […] radioligand displacement, rat striatal membranes. It is filed as binding.
The target of test [2] is T1, dopamine transporter (DAT). Briefly: [3H]GBR […] radioligand displacement. It is filed as binding.

T1 sequence (P23977 whole entry): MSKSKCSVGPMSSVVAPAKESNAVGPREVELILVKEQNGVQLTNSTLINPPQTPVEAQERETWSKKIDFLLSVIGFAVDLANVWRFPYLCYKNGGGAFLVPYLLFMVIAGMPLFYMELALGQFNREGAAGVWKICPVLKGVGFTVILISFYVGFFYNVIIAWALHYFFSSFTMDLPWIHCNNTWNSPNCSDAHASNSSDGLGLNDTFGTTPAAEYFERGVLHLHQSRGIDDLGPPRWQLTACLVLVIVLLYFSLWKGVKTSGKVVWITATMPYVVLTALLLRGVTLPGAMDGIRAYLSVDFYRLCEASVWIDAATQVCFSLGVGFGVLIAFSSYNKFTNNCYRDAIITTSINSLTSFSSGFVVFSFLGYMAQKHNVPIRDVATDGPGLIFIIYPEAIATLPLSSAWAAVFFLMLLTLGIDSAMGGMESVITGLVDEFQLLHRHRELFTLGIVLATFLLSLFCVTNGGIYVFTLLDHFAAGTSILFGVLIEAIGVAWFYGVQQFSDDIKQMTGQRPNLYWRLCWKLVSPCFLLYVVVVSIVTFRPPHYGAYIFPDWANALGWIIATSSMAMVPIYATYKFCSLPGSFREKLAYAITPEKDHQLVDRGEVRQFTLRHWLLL

In test [1], `CN1CCCC2C(c3ccccc3)C(C3=NCCCC3)C(c3ccccc3)CC21` (centres unmarked) [lobinaline] showed a Ki of 2.54 µM.
The compound lobinaline N-oxide came in with a Ki in test [2] of 132 µM.
